IC50 data for 14 compounds are collected here from patent publication US12011444B2, “N-substituted indole derivatives as PGE2 receptor modulators” (Idorsia Pharmaceuticals Ltd, priority 2015, dated 2024).

One assay has as its target PTGER2 (EP2) (Homo sapiens (Human), UniProt P43116). Briefly: hEP2 b-arrestin assay (PathHunter HEK 293 PTGER2 b-arrestin cells). In kind it is cell-based. A digest of the protocol:
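Readout is β-galactosidase complementation luminescence, expressed as percent of DMSO control (duplicates). PathHunter HEK293 EP2/β-arrestin 2 cells, grown 24 h, received compound for 15 min at 37 °C before a 120 min challenge with PGE2 at 5 μM final, followed by 1 h detection at room temperature.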

For a further assay, the target named is PTRGER4 (EP4) (Homo sapiens (Human), UniProt P35408). Nature of the assay: hEP4 b-arrestin assay (PathHunter HEK 293 PTGER4 b-arrestin cells). The format is cell-based. In a few lines: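 Antagonist mode: compound is given 15 min at 37 °C, then 20 nM (final) PGE2 for 120 min, in HEK293 cells stably expressing EP4 fused to ProLink and β-arrestin 2 fused to EA. Recruitment read as β-gal luminescence after 1 h reagent at room temperature, as percent of DMSO control.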

Setting [1] is: hEP2 b-arrestin assay (values without asterisk).
Setting [2] is: hEP4 b-arrestin assay (values without asterisk).
Setting [3] is: antagonistic activity on hEP2, mean where measured multiple times.
[4] abbreviates: antagonistic activity on hEP4, mean where measured multiple times.

Molecules are shown by their SMILES.

PTGER2 (EP2), sequence (P43116 whole entry): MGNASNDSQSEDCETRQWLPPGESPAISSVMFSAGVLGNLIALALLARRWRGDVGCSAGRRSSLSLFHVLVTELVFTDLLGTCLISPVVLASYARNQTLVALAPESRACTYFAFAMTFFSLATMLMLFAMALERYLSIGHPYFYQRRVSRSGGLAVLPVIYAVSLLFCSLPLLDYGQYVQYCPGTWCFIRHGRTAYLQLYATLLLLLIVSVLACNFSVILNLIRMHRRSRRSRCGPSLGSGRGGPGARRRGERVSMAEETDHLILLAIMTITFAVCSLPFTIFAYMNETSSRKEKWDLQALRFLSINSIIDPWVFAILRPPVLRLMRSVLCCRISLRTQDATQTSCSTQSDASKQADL
PTRGER4 (EP4), sequence (P35408 whole entry, looked up, the tested form may be a part): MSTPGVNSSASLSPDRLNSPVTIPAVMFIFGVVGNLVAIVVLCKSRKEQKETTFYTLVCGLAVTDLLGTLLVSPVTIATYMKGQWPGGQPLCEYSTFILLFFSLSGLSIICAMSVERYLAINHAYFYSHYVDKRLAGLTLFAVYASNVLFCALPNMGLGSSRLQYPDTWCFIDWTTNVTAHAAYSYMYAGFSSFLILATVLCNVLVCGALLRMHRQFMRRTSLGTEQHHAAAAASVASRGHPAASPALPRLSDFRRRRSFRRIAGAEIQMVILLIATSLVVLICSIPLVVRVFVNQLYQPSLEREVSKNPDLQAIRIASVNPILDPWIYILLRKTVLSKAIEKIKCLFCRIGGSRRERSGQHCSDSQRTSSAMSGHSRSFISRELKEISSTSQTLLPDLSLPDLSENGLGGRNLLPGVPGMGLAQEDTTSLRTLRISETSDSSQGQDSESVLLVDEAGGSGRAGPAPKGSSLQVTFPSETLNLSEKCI

A word on the IC50: it is the concentration that gives 50% inhibition. Low values mean greater potency, high ones weaker potency. On to `COC(=O)N(C)c1ccc(-c2cc(NCCn3c(C#N)cc4c(OC)ccc(F)c43)ncn2)cc1` [Example 1056, (4-{6-[2-(2-Cyano-7-fluoro-4-methoxy-indol-1-yl)-ethylamino]-pyrimidin-4-yl}-phenyl)-methyl-carbamic acid methyl ester], for which the concentration for half-maximal inhibition (IC50) at PTGER2 (EP2) (setting [1]) is 120 nM; on PTRGER4 (EP4) (setting [2]) it was 119 nM.

With `CCOc1cc(-c2cc(NCCn3c(C)cc4c(F)cc(F)c(F)c43)ncn2)sc1C(=O)O` [compound 274], the concentration for half-maximal inhibition (IC50) on PTGER2 (EP2) (setting [3]) stood at 1 nM; against PTRGER4 (EP4) (setting [4]) it was 43 nM.

Turning to `COc1ccc(F)c2c1cc(C)n2CCNc1cc(-c2ccc(C(N)=O)cc2)ncn1` [compound 42, 4-{6-[2-(7-Fluoro-4-methoxy-2-methyl-indol-1-yl)-ethylamino]-pyrimidin-4-yl}-benzamide], the IC50 was found to be 21 nM against PTGER2 (EP2) (setting [3]) and 494 nM on PTRGER4 (EP4) (setting [4]).

As to `Cc1ccc(F)c2c1cc(C)n2CCNc1cc(-c2ccc(-n3cccn3)cc2)ncn1` [compound 73], the IC50 on PTGER2 (EP2) (setting [3]) was found to be 214 nM; against PTRGER4 (EP4) (setting [4]) it was 970 nM.

With `CCOc1cc(-c2cc(NCCn3c(C#N)cc4c(OC)ccc(F)c43)ncn2)sc1C(=O)NC` [Example 1023, 5-{6-[2-(2-Cyano-7-fluoro-4-methoxy-indol-1-yl)-ethylamino]-pyrimidin-4-yl}-3-ethoxy-thiophene-2-carboxylic acid methylamide], the half-maximal inhibitory concentration (IC50) was found to be 8 nM against PTGER2 (EP2) (setting [1]) and 1 nM against PTRGER4 (EP4) (setting [2]).

Take `CCOc1cc(-c2cc(NCCn3c(C#N)cc4c(OC)ccc(F)c43)ncn2)sc1C(=O)NO` [Example 1030, 5-{6-[2-(2-Cyano-7-fluoro-4-methoxy-indol-1-yl)-ethylamino]-pyrimidin-4-yl}-3-ethoxy-thiophene-2-carboxylic acid hydroxyamide]: the IC50 on PTGER2 (EP2) (setting [1]) came out at 15 nM; against PTRGER4 (EP4) (setting [2]) it was 3 nM.

`CCOc1cc(-c2cc(NCCn3c(C#N)cc4c(OC)ccc(F)c43)ncn2)ccc1C=O` [Example 992, 1-{2-[6-(3-Ethoxy-4-formyl-phenyl)-pyrimidin-4-ylamino]-ethyl}-7-fluoro-4-methoxy-1H-indole-2-carbonitrile]: the IC50 is 27 nM on PTGER2 (EP2) (setting [1]) and 35 nM at PTRGER4 (EP4) (setting [2]).

`COc1cc(F)cc2c1cc(C)n2CCNc1cc(-c2ccc(-c3nc(C)no3)cc2)ncn1` [compound 301]: the IC50 at PTGER2 (EP2) (setting [3]) was determined as 103 nM; against PTRGER4 (EP4) (setting [4]) it was 358 nM.

In the case of `COc1ccc(F)c2c1cc(C#N)n2CCNc1cc(-c2ccc3[nH]ccc3c2)ncn1` [Example 994, 7-Fluoro-1-{2-[6-(1H-indol-5-yl)-pyrimidin-4-ylamino]-ethyl}-4-methoxy-1H-indole-2-carbonitrile], the figures for the concentration for half-maximal inhibition (IC50) on PTGER2 (EP2) (setting [1]) and against PTRGER4 (EP4) (setting [2]) were 7 nM and 6 nM, respectively.

`CCCOc1cc(-c2cc(NCCn3c(C#N)cc4c(OC)ccc(F)c43)ncn2)cc(Cl)c1C(=O)O` [Example 907, 2-Chloro-4-{6-[2-(2-cyano-7-fluoro-4-methoxy-indol-1-yl)-ethylamino]-pyrimidin-4-yl}-6-propoxy-benzoic acid]: the concentration for half-maximal inhibition (IC50) on PTGER2 (EP2) (setting [1]) was 24 nM; against PTRGER4 (EP4) (setting [2]), 12 nM.

Regarding `COc1ccc(F)c2c1cc(C)n2CCNc1cc(-c2ccc(-n3cccn3)cc2)ncn1` [compound 190], the IC50 against PTGER2 (EP2) (setting [3]) was found to be 53 nM; against PTRGER4 (EP4) (setting [4]), 193 nM.

With `COc1ccc(F)c2c1cc(C#N)n2CCNc1cc(-c2ccc(C(O)(O)C(F)(F)F)cc2)ncn1` [Example 1018, 7-Fluoro-4-methoxy-1-(2-{6-[4-(2,2,2-trifluoro-1,1-dihydroxy-ethyl)-phenyl]-pyrimidin-4-ylamino}-ethyl)-1H-indole-2-carbonitrile], the figures for the IC50 against PTGER2 (EP2) (setting [1]) and against PTRGER4 (EP4) (setting [2]) were 94 nM and 69 nM, respectively.

In the case of `COc1ccc(Cl)c2c1cc(C)n2CCNc1cc(-c2ccc3cnn(C)c3c2)ncn1` [compound 82], the IC50 is 193 nM at PTGER2 (EP2) (setting [3]) and 968 nM on PTRGER4 (EP4) (setting [4]).

With `Cc1cccc2c1cc(C)n2CCNc1cc(-c2cc(OC(C)C)c(C(=O)O)s2)ncn1` [Example 879, 5-{6-[2-(2,4-Dimethyl-indol-1-yl)-ethylamino]-pyrimidin-4-yl}-3-isopropoxy-thiophene-2-carboxylic acid], the IC50 against PTGER2 (EP2) (setting [1]) was found to be 4 nM; against PTRGER4 (EP4) (setting [2]), 36 nM.
